37 compounds from US10252987B2, “Type of antiviral compound” (Institute of Medicinal Biotechnology, Chinese Academy of …, priority 2015, dated 2019) can be followed below.

In this assay the test system is HCV. The assay is described as follows: anti-HCV activity assay in cell culture (HCV RNA by one-step quantitative RT-PCR). The assay is classed as cell-based. To be noted: compound at 10 μmol/L, Huh7.5 cells infected with HCV virus particles, cultured 96 hrs, HCV RNA in cells vs virus control group; for inhibition at 10 µM: Hepatitis C virus, Huh7.5, 96 h, read-out: percent inhibition (%). How it is done: The assay results of anti-HCV activity of the compound synthesized according to the present invention in cell culture are shown in Table 1, wherein the molecular weight is calculated by ChemBioDraw 12.0 software from the molecular structure of each compound.
100 μL Huh7.5 cells were seeded in 96-well cell culture plate to 1×10^5/mL density, cultured in an incubator at 37° C. under the condition of 5% CO2 and saturated humidity for 6 hrs. Huh7.5 cells were then infected by viral solution containing HCV virus particles, and solutions of compound of the present invention at a concentration of 10 μmol/L liquid were added respectively, cultured for further 96 hrs, and then total RNA was extracted from the cells. Amount of HCV RNA in cells was determined by one-step quantitative RT-PCR, and compared to RNA levels of the virus control group to calculate the inhibition rate of compounds on HCV.

What is called inhibition is how much of the control response was suppressed. For the compound `CCCN1CCN(c2ccc(C#N)c(CN(CC)c3ccc(Sc4ccccc4)cc3)n2)CC1` [Compound 41, 2-((4-(phenylthio)phenyl)(ethyl)amino)methyl-6-(4-propylpiperazin-1-yl)-3-cyanopyridine], the inhibition at 10 µM came out at 57%.

On to `CN1CCN(c2ccc(C#N)c(CNc3ccc(Br)cc3)c2)CC1` [Compound 42, 2-(((4-bromophenyl)amino)methyl)-4-(4-methylpiperazin-1-yl)benzonitrile], for which the inhibition at 10 µM turned out to be 87%.

For the compound `COc1ccc(N2CCN(Cc3cc(NCCN(C)C)ccc3C#N)CC2)cc1` [VI-1], the “percent inhibition (%)” value is given as 99%.

Turning to `COc1ccc(N2CCN(Cc3cc(NCN4CCCCC4)ccc3C#N)CC2)cc1` [VI-2, 4-(((piperidin-1-yl)methyl)amino)-2-(4-(4-methoxyphenyl)piperazin-1-yl)methylbenzonitrile], the inhibition at 10 µM is 62%.

In the case of `COc1ccc(N2CCN(Cc3cc(N4CCN(C)CC4)ccc3C#N)CC2)cc1` [VI-3, 4-((4-methyl)piperazin-1-yl)-2-(4-(4-methoxyphenyl)piperazin-1-yl)methylbenzonitrile], the inhibition at 10 µM is 91%.

As to `Cc1ccc(N2CCN(Cc3cc(N4CCN(C)CC4)ccc3C#N)CC2)cc1` [VI-4, 4-((4-methyl)piperazin-1-yl)-2-(4-(4-methylphenyl)piperazin-1-yl)methylbenzonitrile], the inhibition at 10 µM was 98%.

For the compound `COc1ccc(N2CCN(Cc3cc(N4CCNCC4)ccc3C#N)CC2)cc1` [VI-5, 4-(piperazin-1-yl)-2-(4-(4-methoxyphenyl)piperazin-1-yl)methylbenzonitrile], the inhibition at 10 µM worked out at 79%.

`Cc1ccc(N2CCN(Cc3cc(N4CCNCC4)ccc3C#N)CC2)cc1` [VI-6, 4-(piperazin-1-yl)-2-(4-(4-methylphenyl)piperazin-1-yl)methylbenzonitrile]: the inhibition at 10 µM was 88%.

As to `Cc1ccc(N2CCN(Cc3cc(N4CCCC(N)C4)ccc3C#N)CC2)cc1` (stereo not shown) [VI-7, 4-(3-aminopiperidin-1-yl)-2-((4-(4-methylphenyl)piperazin-1-yl)methyl)benzonitrile], the inhibition at 10 µM turned out to be 71%.

`N#Cc1ccc(N2CCNCC2)cc1CN1CCN(c2ccccc2)CC1` [VI-8, 4-(piperazin-1-yl)-2-(4-(4-phenyl)piperazin-1-yl)methylbenzonitrile]: the “percent inhibition (%)” value was determined as 82%.

Turning to `CN1CCN(c2ccc(C#N)c(CN3CCN(c4ccc(Cl)cc4)CC3)c2)CC1` [VI-9, 4-(4-methylpiperazin-1-yl)-2-(4-(4-chlorophenyl)piperazin-1-yl)methylbenzonitrile], the inhibition at 10 µM worked out at 92%.

As to `N#Cc1ccc(N2CCNCC2)cc1CN1CCN(c2ccc(Cl)cc2)CC1` [VI-10, 4-(piperazin-1-yl)-2-(4-(4-chlorophenyl)piperazin-1-yl)methylbenzonitrile], the inhibition at 10 µM is 73%.

With `Cc1ccc(N2CCN(Cc3cc(N4CCN(C)CC4)ccc3C#N)CC2)cc1C` [VI-11, 4-(4-methylpiperazin-1-yl)-2-(4-(3,4-dimethylphenyl)piperazin-1-yl)methylbenzonitrile], the inhibition at 10 µM was 80%.

Regarding `CN1CCN(c2ccc(C#N)c(CN3CCN(c4ccc(C5CCCCC5)cc4)CC3)c2)CC1` [VI-12, 4-(4-methylpiperazin-1-yl)-2-(4-(4-cyclohexylphenyl)piperazin-1-yl)methylbenzonitrile], the inhibition at 10 µM was 86%.

In the case of `CN1CCN(c2ccc(C#N)c(CN3CCN(c4ccc(C(C)(C)C)cc4)CC3)c2)CC1` [VI-13, 4-(4-methylpiperazin-1-yl)-2-(4-(4-tert-butylphenyl)piperazin-1-yl)methylbenzonitrile], the inhibition at 10 µM was found to be 90%.

Turning to `CCc1ccc(N2CCN(Cc3cc(N4CCN(C)CC4)ccc3C#N)CC2)cc1` [VI-14, 4-(4-methylpiperazin-1-yl)-2-(4-(4-ethylphenyl)piperazin-1-yl)methylbenzonitrile], the inhibition at 10 µM came to 88%.

For `Cc1cc(N2CCN(Cc3cc(N4CCNCC4)ccc3C#N)CC2)ccc1Cl` [VI-15, 4-(piperazin-1-yl)-2-(4-(3-methyl4-chlorophenyl)piperazin-1-yl)methylbenzonitrile], the inhibition at 10 µM stood at 95%.

Take `CC(C)c1ccc(N2CCN(Cc3cc(N4CCN(C)CC4)ccc3C#N)CC2)cc1` [VI-16, 4-(4-methylpiperazin-1-yl)-2-(4-(4-isopropylphenyl)piperazin-1-yl)methylbenzonitrile]: the inhibition at 10 µM turned out to be 68%.

As to `CSc1ccc(N2CCN(Cc3cc(N4CCN(C)CC4)ccc3C#N)CC2)cc1` [VI-17, 4-(4-methylpiperazin-1-yl)-2-(4-(4-(methylthio)phenyl)piperazin-1-yl)methylbenzonitrile], the inhibition at 10 µM worked out at 70%.

As for `CN1CCN(c2ccc(C#N)c(CN3CCN(c4ccc(Br)cc4)CC3)c2)CC1` [VI-18, 4-(4-methylpiperazin-1-yl)-2-(4-(4-bromophenyl)piperazin-1-yl)methylbenzonitrile], the “percent inhibition (%)” value amounted to 86%.

`CN1CCN(c2ccc(C#N)c(CN3CCN(c4ccc(O)cc4)CC3)c2)CC1` [VI-19, 4-(4-methylpiperazin-1-yl)-2-(4-(4-hydroxylphenyl)piperazin-1-yl)methylbenzonitrile]: the inhibition at 10 µM came out at 67%.

For `CNc1ccc(N2CCN(Cc3cc(N4CCN(C)CC4)ccc3C#N)CC2)cc1` [VI-20, 4-(4-methylpiperazin-1-yl)-2-(4-(4-methylaminophenyl)piperazin-1-yl)methylbenzonitrile], the inhibition at 10 µM turned out to be 78%.

`CN1CCN(c2ccc(C#N)c(CN3CCN(c4ccc(N(C)C)cc4)CC3)c2)CC1` [VI-21, 4-(4-methylpiperazin-1-yl)-2-(4-(4-dimethylaminophenyl)piperazin-1-yl)methylbenzonitrile]: the inhibition at 10 µM was found to be 65%.

In the case of `CN(C)CCN(C)c1ccc(C#N)c(CN2CCN(c3ccc(N4CCCC4)cc3)CC2)c1` [VI-22, 4-((2-(dimethylamino)ethyl)(methyl)amino)-2-(4-(4-(pyrrolidin-1-yl)phenyl)piperazin-1-yl)methylbenzonitrile], the inhibition at 10 µM is 83%.

For the compound `Cc1cc(C2CCN(Cc3cc(N4CCN(C)CC4)ccc3C#N)CC2)ccc1C#N` [VI-23, 4-(4-methylpiperazin-1-yl)-2-(4-(3-methyl-4-cyanophenyl)piperidin-1-yl)methylbenzonitrile], the inhibition at 10 µM stood at 77%.

In the case of `CN1CCN(c2ccc(C#N)c(CN3CCN(c4ccc(C5CCCC5)cc4)CC3)c2)CC1` [VI-24, 4-(4-methylpiperazin-1-yl)-2-(4-(4-cyclopentylphenyl)piperazin-1-yl)methylbenzonitrile], the inhibition at 10 µM is 59%.

For `COc1ccc(N2CCN(Cc3cc(N4C(C)CNCC4C)ccc3C#N)CC2)cc1` (stereo not shown) [VI-25], the “percent inhibition (%)” value was 67%.

Consider `Cc1ccc(N2CCN(Cc3cc(NCCCN(C)C)ccc3C#N)CC2)cc1` [VI-26, 4-(N′,N′-dimethyl-1,3-propanediamin-1-yl)-2-(4-p-methylphenylpiperazin-1-yl)methylbenzonitrile], for which the “percent inhibition (%)” value is 58%.

Consider `CN(C)CCCNc1ccc(C#N)c(CN2CCN(c3ccccc3)CC2)c1` [VI-27, 4-(N′,N′-dimethyl-1,3-propanediamin-1-yl)-2-(4-phenylpiperazin-1-yl)methylbenzonitrile], for which the “percent inhibition (%)” value was 60%.

`CN(C)CCNc1ccc(C#N)c(CN2CCN(c3ccc(C(F)(F)F)cc3)CC2)c1` [VI-28, 4-(N′,N′-dimethyl-1,2-ethylenediamin-1-yl)-2-(4-p-trifluoromethylphenyl-piperazin-1-yl)methylbenzonitrile]: the “percent inhibition (%)” value is listed as 79%.

For `CN(C)CCCNc1ccc(C#N)c(CN2CCN(c3ccc(Cl)cc3)CC2)c1` [VI-29, 4-(N′,N′-dimethyl-1,3-propanediamin-1-yl)-2-(4-p-chlorophenylpiperazin-1-yl)methylbenzonitrile], the “percent inhibition (%)” value was 80%.

Take `COc1ccc(N2CCN(Cc3cc(NCCN(C)C)ccc3C#N)CC2)cc1` [VI-30, 4-(N′,N′-dimethyl-1,2-ethylenediamin-1-yl)-2-(4-p-methoxyphenylpiperazin-1-yl)methylbenzonitrile]: the “percent inhibition (%)” value came to 66%.

`COc1ccc(N2CCN(Cc3cc(N(C)CCN(C)C)ccc3C#N)CC2)cc1` [VI-31, 4-(N,N′,N′-trimethyl-1,2-ethylenediamin-1-yl)-2-(4-p-methoxyphenylpiperazin-1-yl)methylbenzonitrile]: the “percent inhibition (%)” value was determined as 91%.

On to `CN(C)CCCN(C)c1ccc(C#N)c(CN2CCN(c3ccc(C4CCCCC4)cc3)CC2)c1` [VI-32, 4-(N,N′,N′-trimethyl1,3-propanediamin-1-yl)-2-(4-p-cyclohexylphenylpiperazin-1-yl)methylbenzonitrile], for which the “percent inhibition (%)” value is 80%.

Take `CN(C)CNc1ccc(C#N)c(CN2CCN(c3ccc(C(C)(C)C)cc3)CC2)c1` [VI-33, 2-(4-(4-tert-butylphenyl)piperazin-1-yl)methyl-4-((N,N-dimethylamino)methyl)amino-benzonitrile]: the inhibition at 10 µM was 90%.

`CN1CCN(c2ccc(C#N)c(CN3CCN(c4ccc(Br)cc4)CC3)c2)CC1` [VI-34, 2-(4-(4-bromophenyl)piperazin-1-yl)methyl-4-(4-methylpiperazin-1-yl)benzonitrile]: the inhibition at 10 µM was found to be 91%.

Take `CN(C)CCN(C)c1ccc(C#N)c(CN2CCN(c3ccc(Cl)cc3)CC2)c1` [VI-35, 4-(N,N′,N′-trimethyl-1,2-ethylenediamin-1-yl)-2-(4-p-chlorophenylpiperazin-1-yl)methylbenzonitrile]: the “percent inhibition (%)” value was 99%.
